# Patent publication US20260137697A1, “THIAZOLO[5,4-D]PYRIMIDINE COMPOUNDS, COMPOSITIONS COMPRISING THEM AND USES THEREOF” (University de Montreal, priority 2022, published 2026)
# Legend:
# ARAF = target: T1, ARAF (Homo sapiens, UniProt P10398); assay: ARAF kinase activity assay (AlphaLISA p-MEK 1/2); format: biochemical; conditions: Table A; 10 μM ATP, kinase-dead MEK1 substrate
# T1 construct: ARAF kinase reactions were rigorously the same with the exception that kinase concentration was raised to 3.75 nM (cat. No. 1768-0000-1; Reaction Biology)
# T1 sequence (P10398 303-606 limits assumed): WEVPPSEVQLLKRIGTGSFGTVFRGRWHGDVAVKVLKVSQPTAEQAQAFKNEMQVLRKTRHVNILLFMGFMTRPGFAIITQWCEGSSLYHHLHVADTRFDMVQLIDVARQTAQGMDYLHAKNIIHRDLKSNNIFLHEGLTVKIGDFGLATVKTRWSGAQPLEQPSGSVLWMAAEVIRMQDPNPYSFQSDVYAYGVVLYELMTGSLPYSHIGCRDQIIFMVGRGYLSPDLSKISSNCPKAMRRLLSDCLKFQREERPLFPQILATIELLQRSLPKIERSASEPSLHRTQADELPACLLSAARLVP
# Description: Compound preparation: solid samples of each substance in 1dram vials were suspended in DMSO (Fisher Scientific) at a stock concentration of 20 mM. Stocks were kept at −20° C. and protected from light. If solubility of the compound at 20 mM appeared to be an issue, the initial concentration of the DMSO stock was changed to 10 mM or 5 mM.
# In vitro enzymatic reactions were used for evaluating compounds intrinsic activity against BRAF, CRAF and ARAF. For BRAF and CRAF, 0.375 nM of purified GST-tagged kinases (cat. No. B4062-10UG and cat. No. R1656-10UG respectively from Millipore Sigma) were incubated with 75 nM of kinase-dead MEK1 substrate (cat. No. 40075; BPS Bioscience) in the presence of 10 μM of Ultrapure ATP (cat. No. V9102; Promega; part V915A) with and without the test compound in a buffer containing 50 mM HEPES pH 7.5, 10 mM MgCl2, 1 mM EDTA, 0.01% Brij-35 and 2 mM DTT. Separate reactions were performed with the MEK1 substrate and ATP as a blank control. ARAF kinase reactions were rigorously the same with the exception that kinase concentration was raised to 3.75 nM (cat. No. 1768-0000-1; Reaction Biology).
# For compound treatment, 5 μL/well of test substance solution are placed in a 384-well proxyplate (Perkin Elmer) and mixed with 2× concentrated kinase reactions. The dilution series is selected so that nine concentrations cover a range from 100 nM to 0.01 nM. […] The final concentration of DMSO in the assay is set at 0.05%.
# ARAF kinase reactions were carried out for a total of 2 hours at 30° C. and then stopped by addition of EDTA at a final concentration of 40 mM. Reactions were then detected using the AlphaLISA® SureFire® Ultra™ p-MEK 1/2 (Ser218/222) (PerkinElmer) kit. Reactions were performed with 5 μL of kinase reaction according to the manufacturer's specifications in 384-well proxyplates (Perkin Elmer) followed by overnight incubation of the AlphaLISA® reactions at room temperature in a humidified chamber. After completion of the detection reactions, the signals were recorded on a Synergy Neo2 plate reader (Biotek) equipped with AlphaLISA® filters. The effect of each compound dilution on the pMEK signal generated by ARAF reactions was expressed in % inhibition and calculated as follows. An internal 100% inhibition control (average of luminescence in kinase reactions comprising kinase dead MEK1 substrate alone) was included in each plate to measure of pMEK background and was subtracted from each data point. The average of DMSO (vehicle) controls (set as 0% inhibition) was also established and used to calculate % inhibition:
# IC50 values were obtained by plotting the kinase inhibition values and fitting the dose-activity curves using a log(agonist) versus response—variable slope (four parameters) function using either GraphPadPrism (V7.0) or Dotmatics Screening Ultra platform. Standards included in the ARAF kinase assay were Belvarafenib (MedChem Express cat. No. HY-109080; CAS No. 1446113-23-0), LXH254 (MedChem Express cat. No. HY-112089; CAS No. 1800398-38-2) and BGB283 (cat. No. HY-18957; CAS No. 1446090-79-4).
# pERK, HCT116 cells = assay: Phospho-ERK inhibition, AlphaLISA p-ERK 1/2, HCT-116; format: cell-based, human; conditions: Table 3; for IC50: HCT116 cells (KRAS G13D), 1 h treatment; for HCT116 pERK (Ymin %): lowest % inhibition value of the pERK IC50 curve, above −20% = no paradoxical induction
# How it was run: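 Cells in RPMI-1640 with 5% FBS plated overnight, then treated 1 h with ten-point dilutions (10 μM to 0.33 nM, 0.5% DMSO). Lysate p-ERK1/2 (Thr202/Tyr204) read by AlphaLISA SureFire Ultra; % inhibition normalised to DMSO and 1 μM trametinib background, IC50 by four-parameter fit.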
# BRAF = target: T2, BRAF (Homo sapiens, UniProt P15056); assay: BRAF kinase activity assay (ADP-Glo); format: biochemical; conditions: Table 3; 10 μM ATP, kinase-dead MEK1 substrate
# T2 construct: GST; purchased Millipore Sigma B4062-10UG
# T2 sequence (P15056 whole entry): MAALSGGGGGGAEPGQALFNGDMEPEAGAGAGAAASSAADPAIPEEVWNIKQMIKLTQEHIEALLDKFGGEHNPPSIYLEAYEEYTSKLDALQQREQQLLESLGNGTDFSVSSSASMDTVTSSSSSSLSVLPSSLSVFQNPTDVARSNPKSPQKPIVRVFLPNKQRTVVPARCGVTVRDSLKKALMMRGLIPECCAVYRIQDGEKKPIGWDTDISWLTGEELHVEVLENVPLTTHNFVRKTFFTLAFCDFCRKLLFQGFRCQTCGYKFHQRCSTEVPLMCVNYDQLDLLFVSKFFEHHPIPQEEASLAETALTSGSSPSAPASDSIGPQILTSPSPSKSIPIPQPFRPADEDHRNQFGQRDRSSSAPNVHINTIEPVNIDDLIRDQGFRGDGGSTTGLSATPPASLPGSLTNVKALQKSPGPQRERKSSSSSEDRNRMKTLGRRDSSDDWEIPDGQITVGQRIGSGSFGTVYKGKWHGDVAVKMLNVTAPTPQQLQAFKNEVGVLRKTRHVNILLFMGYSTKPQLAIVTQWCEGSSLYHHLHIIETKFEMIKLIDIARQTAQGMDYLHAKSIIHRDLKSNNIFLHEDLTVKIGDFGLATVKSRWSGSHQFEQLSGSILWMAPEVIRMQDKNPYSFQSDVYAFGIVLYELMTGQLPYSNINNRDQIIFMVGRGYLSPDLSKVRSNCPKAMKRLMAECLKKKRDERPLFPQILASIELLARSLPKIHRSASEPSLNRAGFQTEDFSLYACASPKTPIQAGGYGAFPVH
# How it was run: (§1)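 ADP-Glo luminescence read after 2 h reactions at 30° C containing 0.375 nM GST-kinase, kinase-dead MEK1 (75 nM), ATP at 10 μM, pH 7.5 HEPES/MgCl2/DTT, 0.05% DMSO. Compounds dosed from 100 to 0.01 nM (nine points); IC50 from variable-slope fit of % inhibition.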
# CRAF = target: T3, CRAF (Homo sapiens, UniProt P04049); assay: CRAF kinase activity assay (ADP-Glo); format: biochemical; conditions: Table 3; 10 μM ATP, kinase-dead MEK1 substrate
# T3 construct: fused on or other part: GST tag (N-terminal according to the vendor's product)
# T3 sequence (P04049 whole entry Y340E/Y341E, form open, the tested form may be a part): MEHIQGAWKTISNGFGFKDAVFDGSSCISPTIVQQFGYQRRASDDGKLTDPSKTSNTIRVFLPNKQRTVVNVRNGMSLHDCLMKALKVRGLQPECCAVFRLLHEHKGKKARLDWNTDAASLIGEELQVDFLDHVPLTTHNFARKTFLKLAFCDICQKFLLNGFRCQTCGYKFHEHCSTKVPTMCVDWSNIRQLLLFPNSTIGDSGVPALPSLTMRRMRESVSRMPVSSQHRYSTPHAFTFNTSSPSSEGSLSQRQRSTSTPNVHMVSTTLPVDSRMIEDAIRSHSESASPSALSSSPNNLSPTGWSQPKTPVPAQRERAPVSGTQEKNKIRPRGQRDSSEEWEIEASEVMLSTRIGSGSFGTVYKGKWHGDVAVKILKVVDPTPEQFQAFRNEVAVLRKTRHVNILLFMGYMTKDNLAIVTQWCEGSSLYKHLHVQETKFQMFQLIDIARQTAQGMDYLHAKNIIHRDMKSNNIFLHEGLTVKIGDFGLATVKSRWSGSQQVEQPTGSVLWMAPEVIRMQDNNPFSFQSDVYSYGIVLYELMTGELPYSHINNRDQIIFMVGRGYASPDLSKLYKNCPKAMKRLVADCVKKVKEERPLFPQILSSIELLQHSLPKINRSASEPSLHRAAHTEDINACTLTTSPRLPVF
# How it was run: as §1
SMILES,IC50 (ARAF) [nM],"IC50 (pERK, HCT116 cells) [nM]","HCT116 pERK (Ymin %) (pERK, HCT116 cells) [%]",IC50 (BRAF) [nM],IC50 (CRAF) [nM],"IC50 (pERK, HCT116 cells; Homo sapiens, HCT-116) [nM]"
O=C1CCc2c(Oc3ccc4c(c3)[C@@H]3[C@H](O4)[C@H]3c3nc4ccc(C(F)(F)F)cc4[nH]3)ccnc2N1 [BGB283],> 10,,,,,
O=C(c1cn(-c2nc3c(Nc4c(F)ccc(NS(=O)(=O)c5cccc(Cl)c5Cl)c4F)ncnc3s2)c2ccccc12)N1CC(C(F)F)C1 [Example 57],,< 500,4,1 to 10,10 to 50,
COCCN(C)C(=O)c1cn(-c2nc3c(Nc4c(F)ccc(NS(=O)(=O)c5cccc(F)c5C)c4F)ncnc3s2)c2ccccc12 [Example 43],,< 500,9,< 1,< 10,
CC(C)S(=O)(=O)c1cn(-c2nc3c(Nc4c(F)ccc(NS(=O)(=O)c5cccc(Cl)c5Cl)c4F)ncnc3s2)c2ccccc12 [Example 73],,< 500,−12,1 to 10,> 50,
CS(=O)(=O)N1CCN(c2cccc3c2ncn3-c2nc3c(Nc4c(F)ccc(NS(=O)(=O)c5cccc(Cl)c5Cl)c4F)ncnc3s2)CC1 [Example 155],,< 500,−12,1 to 10,10 to 50,
Cc1c(F)cccc1S(=O)(=O)Nc1ccc(F)c(Nc2ncnc3sc(-n4cc(C(=O)N(C)Cc5cccnc5)c5ccccc54)nc23)c1F [Example 31],,500 to 1000,7,1 to 10,< 10,
CC1(N)CCN(c2cccc3c2ncn3-c2nc3c(Nc4c(F)ccc(NS(=O)(=O)c5cccc(Cl)c5Cl)c4F)ncnc3s2)CC1 [Example 157],,< 500,−14,< 1,< 10,
O=C(c1cn(-c2nc3c(Nc4c(F)ccc(NS(=O)(=O)c5cccc(Cl)c5Cl)c4F)ncnc3s2)c2ccccc12)N1C2CCC1CC(O)C2 (stereo not shown) [Example 86],,< 500,4,1 to 10,< 10,
"O=C1CCCN1c1cn(-c2nc3c(Nc4c(F)ccc(NS(=O)(=O)c5cccc(Cl)c5Cl)c4F)ncnc3s2)c2ccccc12 [Example 110, 2,3-dichloro-N-[2,4-difluoro-3-[[2-[3-(2-oxopyrrolidin-1-yl)indol-1-yl]thiazolo[5,4-d]pyrimidin-7-yl]amino]phenyl]benzenesulfonamide]",,,,1 to 10,10 to 50,< 500
O=C(c1cn(-c2nc3c(Nc4c(F)ccc(NS(=O)(=O)c5cccc(Cl)c5Cl)c4F)ncnc3s2)c2ccc(Cl)cc12)N1C2CCC1COC2 [Example 81],,500 to 1000,−8,1 to 10,10 to 50,
O=C(c1cn(-c2nc3c(Nc4c(F)ccc(NS(=O)(=O)c5cccc(Cl)c5Cl)c4F)ncnc3s2)c2ccccc12)N1CC(O)C1 [Example 59],,500 to 1000,4,< 1,< 10,
CN(CCN1CCOCC1)S(=O)(=O)c1cn(-c2nc3c(Nc4c(F)ccc(NS(=O)(=O)c5cccc(Cl)c5Cl)c4F)ncnc3s2)c2ccccc12 [Example 83],,500 to 1000,−10,1 to 10,10 to 50,
O=C(c1cn(-c2nc3c(Nc4c(F)ccc(NS(=O)(=O)c5cccc(Cl)c5Cl)c4F)ncnc3s2)c2ccccc12)N1CCC(CO)C1 (stereo not shown) [Example 52],,500 to 1000,−9,< 1,< 10,
O=C(c1cn(-c2nc3c(Nc4c(F)ccc(NS(=O)(=O)c5cccc(Cl)c5Cl)c4F)ncnc3s2)c2ccccc12)N1CCCC(O)C1 (stereo not shown) [Example 55],,500 to 1000,−3,< 1,< 10,
O=S(=O)(Nc1ccc(F)c(Nc2ncnc3sc(-n4cnc5c(F)cc(OCCO)cc54)nc23)c1F)c1cccc(Cl)c1Cl [Example 100],,,,1 to 10,< 10,< 500
Cc1c(F)cccc1S(=O)(=O)Nc1ccc(F)c(Nc2ncnc3sc(-n4nc(C(=O)N5C6CCC5CN(C)C6)c5ccccc54)nc23)c1F [Example 42],,500 to 1000,2,> 10,10 to 50,
O=S(=O)(Nc1ccc(F)c(Nc2ncnc3sc(-n4cnc5c(F)cccc54)nc23)c1F)c1cccc(Cl)c1Cl [Example 18],,< 500,0,< 1,< 10,
C[C@@H]1CN(S(=O)(=O)c2cn(-c3nc4c(Nc5c(F)ccc(NS(=O)(=O)c6cccc(Cl)c6Cl)c5F)ncnc4s3)c3ccccc23)C[C@H](C)N1 [Example 82],,500 to 1000,−13,1 to 10,10 to 50,
Cc1ccc(NC(=O)c2ccnc(C(F)(F)F)c2)cc1-c1cc(OCCO)nc(N2CCOCC2)c1 [LXH254],> 10,,,,,
CCS(=O)(=O)c1cn(-c2nc3c(Nc4c(F)ccc(NS(=O)(=O)c5cccc(Cl)c5Cl)c4F)ncnc3s2)c2ccccc12 [Example 63],,< 500,−5,1 to 10,10 to 50,
CC1COCCN1S(=O)(=O)c1cn(-c2nc3c(Nc4c(F)ccc(NS(=O)(=O)c5cccc(Cl)c5Cl)c4F)ncnc3s2)c2ccccc12 (stereo not shown) [Example 69],,500 to 1000,−7,> 10,10 to 50,
